Patent US12441691B2 (Cytokinetics, Inc., priority 2020, dated 2025)

System: rabbit skeletal myofibrils (fast skeletal myofibrils)
Experiment: Activation of fast skeletal myofibrils (PUMA assay, AC1.4)
Type: biochemical
Details: calcium at pCa25, AC1.4 = concentration at which the compound increased the enzymatic activity
Summary of the method: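 In 12 mM PIPES pH 6.8 with 2 mM MgCl2 and 1 mM DTT, Triton-washed rabbit skeletal myofibrils were run at the pCa25 calcium level. Myosin-made ADP was recycled through a PK/LDH coupled system; NADH loss read at 340 nm.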

Row | Structure (SMILES) | AC1.4 [µM]
1 | CC[C@H](C)[C@H]1C(=O)Nc2ccccc2CN1/C(N)=N/C(C)=O [Compound 113, N-((E)-amino((S)-3-((S)-sec-butyl)-2-oxo-1,2,3,5-tetrahydro-2H-benzo[e][1,4]diazepin-4-yl)methylene)acetamide] | 0.15
2 | CC[C@H](C)[C@H]1C(=O)Nc2ccccc2CN1c1ncccn1 [Compound 114, (S)-3-((S)-sec-butyl)-4-(pyrimidin-2-yl)-1,3,4,5-tetrahydro-2H-benzo[e][1,4]diazepin-2-one] | 0.05
3 | CC[C@H](C)[C@H]1C(=O)Nc2ccccc2CN1c1cc(=O)n(C)cn1 [Compound 115, (S)-3-((S)-sec-butyl)-4-(1-methyl-6-oxo-1,6-dihydropyrimidin-4-yl)-1,3,4,5-tetrahydro-2H-benzo[e][1,4]diazepin-2-one] | 0.08
4 | CC[C@H](C)[C@H]1C(=O)Nc2ccccc2CN1c1nc(OC)cc(OC)n1 [Compound 116, (S)-3-((S)-sec-butyl)-4-(4,6-dimethoxypyrimidin-2-yl)-1,3,4,5-tetrahydro-2H-benzo[e][1,4]diazepin-2-one] | 0.05
5 | CC[C@H](C)[C@H]1C(=O)Nc2ccccc2CN1c1nc(N)nn1C [Compound 117, (S)-4-(3-amino-1-methyl-1H-1,2,4-triazol-5-yl)-3-((S)-sec-butyl)-1,3,4,5-tetrahydro-2H-benzo[e][1,4]diazepin-2-one] | 0.07
6 | CC[C@H](C)[C@H]1C(=O)Nc2ccccc2CN1c1nc(N)n(C)n1 [Compound 118, (S)-4-(5-amino-1-methyl-1H-1,2,4-triazol-3-yl)-3-((S)-sec-butyl)-1,3,4,5-tetrahydro-2H-benzo[e][1,4]diazepin-2-one] | 0.08
7 | CC[C@H](C)[C@H]1C(=O)Nc2ccccc2CN1S(=O)(=O)CCOC [Compound 119, (S)-3-((S)-sec-butyl)-4-((2-methoxyethyl)sulfonyl)-1,3,4,5-tetrahydro-2H-benzo[e][1,4]diazepin-2-one] | 2.44
8 | CC[C@H](C)[C@H]1C(=O)Nc2ccccc2CN1S(=O)(=O)NC [Compound 120, (S)-3-((S)-sec-butyl)-N-methyl-2-oxo-1,2,3,5-tetrahydro-4H-benzo[e][1,4]diazepine-4-sulfonamide] | 0.12
9 | NC(=O)N1Cc2ccccc2NC(=O)[C@@H]1C1CCC1 [Compound 121, (S)-3-cyclobutyl-2-oxo-1,2,3,5-tetrahydro-4H-benzo[e][1,4]diazepine-4-carboxamide] | 4.80
10 | Cn1cc(C(=O)N2Cc3ccccc3NC(=O)[C@@H]2C2CCC2)cn1 [Compound 122, (S)-3-cyclobutyl-4-(1-methyl-1H-pyrazole-4-carbonyl)-1,3,4,5-tetrahydro-2H-benzo[e][1,4]diazepin-2-one] | 3.16
11 | NC(=O)N1Cc2ccccc2NC(=O)[C@@H]1C1CCCC1 [Compound 123, (S)-3-cyclopentyl-2-oxo-1,2,3,5-tetrahydro-4H-benzo[e][1,4]diazepine-4-carboxamide] | 0.35
12 | O=C1Nc2ccccc2CN(C(=O)CCO)[C@H]1C1CCCCC1 [Compound 124, (S)-3-cyclohexyl-4-(3-hydroxypropanoyl)-1,3,4,5-tetrahydro-2H-benzo[e][1,4]diazepin-2-one] | 0.38
13 | NC(=O)c1ccc(C(=O)N2Cc3ccccc3NC(=O)[C@@H]2C2CCCCC2)cc1 [Compound 125, (S)-4-(3-cyclohexyl-2-oxo-2,3,4,5-tetrahydro-1H-benzo[e][1,4]diazepine-4-carbonyl)benzamide] | 0.29
14 | O=C1Nc2ccccc2CN(C(=O)c2ccco2)[C@H]1C1CCCCC1 [Compound 128, (S)-3-cyclohexyl-4-(furan-2-carbonyl)-1,3,4,5-tetrahydro-2H-benzo[e][1,4]diazepin-2-one] | 0.06
15 | CCC(CC)[C@H]1C(=O)Nc2ccccc2CN1C(N)=O [Compound 129, (S)-2-oxo-3-(pentan-3-yl)-1,2,3,5-tetrahydro-4H-benzo[e][1,4]diazepine-4-carboxamide] | 0.10
16 | CC[C@H](C)[C@H]1C(=O)Nc2ccccc2CN1c1c(NC)c(=O)c1=O [Compound 130, 3-((S)-3-((S)-sec-butyl)-2-oxo-1,2,3,5-tetrahydro-4H-benzo[e][1,4]diazepin-4-yl)-4-(methylamino)cyclobut-3-ene-1,2-dione] | 0.06
17 | CC[C@H](C)[C@H]1C(=O)Nc2ccccc2CN1c1c(N(C)C)c(=O)c1=O [Compound 131, 3-((S)-3-((S)-sec-butyl)-2-oxo-1,2,3,5-tetrahydro-4H-benzo[e][1,4]diazepin-4-yl)-4-(dimethylamino)cyclobut-3-ene-1,2-dione] | 0.02
18 | CC[C@H](C)[C@H]1C(=O)Nc2ccccc2CN1c1c(NCCO)c(=O)c1=O [Compound 132, 3-((S)-3-((S)-sec-butyl)-2-oxo-1,2,3,5-tetrahydro-4H-benzo[e][1,4]diazepin-4-yl)-4-((2-hydroxyethyl)amino)cyclobut-3-ene-1,2-dione] | 0.07

Row | Structure (SMILES) | AC1.4 [µM]
19 | CC[C@H](C)[C@H]1C(=O)Nc2ccccc2CN1C(=O)N(C)CCN(C)C [Compound 133, (S)-3-((S)-sec-butyl)-N-(2-(dimethylamino)ethyl)-N-methyl-2-oxo-1,2,3,5-tetrahydro-4H-benzo[e][1,4]diazepine-4-carboxamide] | 0.48
20 | CC[C@H](C)[C@H]1C(=O)Nc2ccccc2CN1C(=O)N1CCC(O)CC1 [Compound 134, (S)-3-((S)-sec-butyl)-4-(4-hydroxypiperidine-1-carbonyl)-1,3,4,5-tetrahydro-2H-benzo[e][1,4]diazepin-2-one] | 0.71
21 | CC[C@H](C)[C@H]1C(=O)Nc2ccccc2CN1C(=O)N(CCO)C(C)C [Compound 135, (S)-3-((S)-sec-butyl)-N-(2-hydroxyethyl)-N-isopropyl-2-oxo-1,2,3,5-tetrahydro-4H-benzo[e][1,4]diazepine-4-carboxamide] | 3.72
22 | CC[C@H](C)[C@H]1C(=O)Nc2ccccc2CN1C(=O)N1C[C@@H](O)[C@@H](O)C1 [Compound 137, (S)-3-((S)-sec-butyl)-4-((3R,4S)-3,4-dihydroxypyrrolidine-1-carbonyl)-1,3,4,5-tetrahydro-2H-benzo[e][1,4]diazepin-2-one] | 3.35
23 | CC[C@H](C)[C@H]1C(=O)Nc2ccccc2CN1C(=O)NC1CN(C)C1 [Compound 138, (S)-3-((S)-sec-butyl)-N-(1-methylazetidin-3-yl)-2-oxo-1,2,3,5-tetrahydro-4H-benzo[e][1,4]diazepine-4-carboxamide] | 0.52
24 | CC[C@H](C)[C@H]1C(=O)Nc2ccccc2CN1C(=O)NC1CN(C2COC2)C1 [Compound 139, (S)-3-((S)-sec-butyl)-N-(1-(oxetan-3-yl)azetidin-3-yl)-2-oxo-1,2,3,5-tetrahydro-4H-benzo[e][1,4]diazepine-4-carboxamide] | 0.93
25 | CC[C@H](C)[C@H]1C(=O)Nc2ccccc2CN1C(=O)N1C[C@@H](O)[C@H](O)C1 [Compound 140, (S)-3-((S)-sec-butyl)-4-((3R,4R)-3,4-dihydroxypyrrolidine-1-carbonyl)-1,3,4,5-tetrahydro-2H-benzo[e][1,4]diazepin-2-one] | 4.74
26 | CC[C@H](C)[C@H]1C(=O)Nc2ccccc2CN1C(=O)N[C@H]1CCN(CCO)C1 [Compound 141, (S)-3-((S)-sec-butyl)-N-((S)-1-(2-hydroxyethyl)pyrrolidin-3-yl)-2-oxo-1,2,3,5-tetrahydro-4H-benzo[e][1,4]diazepine-4-carboxamide] | 0.54
27 | CC[C@H](C)[C@H]1C(=O)Nc2ccccc2CN1C(=O)NC1CCNCC1 [Compound 142, (S)-3-((S)-sec-butyl)-2-oxo-N-(piperidin-4-yl)-1,2,3,5-tetrahydro-4H-benzo[e][1,4]diazepine-4-carboxamide] | 0.36
28 | CC[C@H](C)[C@H]1C(=O)Nc2ccccc2CN1C(=O)N[C@@H]1CCN(C)C1 [Compound 143, (S)-3-((S)-sec-butyl)-N-((R)-1-methylpyrrolidin-3-yl)-2-oxo-1,2,3,5-tetrahydro-4H-benzo[e][1,4]diazepine-4-carboxamide] | 0.35
29 | CC[C@H](C)[C@H]1C(=O)Nc2ccccc2CN1C#N [Compound 145, (S)-3-((S)-sec-butyl)-2-oxo-1,2,3,5-tetrahydro-4H-benzo[e][1,4]diazepine-4-carbonitrile] | 0.50
30 | CC[C@H](C)[C@H]1C(=O)Nc2ccccc2CN1C(=N)NO [Compound 146, (S)-3-((S)-sec-butyl)-N-hydroxy-2-oxo-1,2,3,5-tetrahydro-4H-benzo[e][1,4]diazepine-4-carboximidamide] | 0.30
31 | CC[C@H](C)[C@H]1C(=O)Nc2ccccc2CN1C(=O)C(C)(C)C(N)=O [Compound 147, 3-((S)-3-((S)-sec-butyl)-2-oxo-1,2,3,5-tetrahydro-4H-benzo[e][1,4]diazepin-4-yl)-2,2-dimethyl-3-oxopropanamide] | 2.57
32 | CC[C@H](C)[C@H]1C(=O)Nc2ccccc2CN1C(=O)C1CC(=O)N(C)C1 (stereo partly drawn) [Compound 148] | 0.98
33 | CC[C@H](C)[C@H]1C(=O)Nc2ccccc2CN1C(=O)CC(C)(C)O [Compound 149] | 2.08
34 | CC[C@H](C)[C@H]1C(=O)Nc2ccccc2CN1C(=O)c1cc2ncccc2[nH]1 [Compound 150, (S)-3-((S)-sec-butyl)-4-(1H-pyrrolo[3,2-b]pyridine-2-carbonyl)-1,3,4,5-tetrahydro-2H-benzo[e][1,4]diazepin-2-one] | 0.03
35 | CC[C@H](C)[C@H]1C(=O)Nc2ccccc2CN1C(=O)c1cc2ccncc2[nH]1 [Compound 151, (S)-3-((S)-sec-butyl)-4-(1H-pyrrolo[2,3-c]pyridine-2-carbonyl)-1,3,4,5-tetrahydro-2H-benzo[e][1,4]diazepin-2-one] | 0.06
36 | CC[C@H](C)[C@H]1C(=O)Nc2ccccc2CN1C(=O)c1ncn[nH]1 [Compound 152, (S)-3-((S)-sec-butyl)-4-(1H-1,2,4-triazole-5-carbonyl)-1,3,4,5-tetrahydro-2H-benzo[e][1,4]diazepin-2-one] | 0.07
